What was measured:
[1] = target: T1, human HDAC3/NcoR2 (Homo sapiens, UniProt O15379); test: HDAC3 enzymatic activity assay (fluorogenic peptide); assay type: biochemical; conditions: 10-dose, 3-fold serial dilution, triplicate
T1 construct: human HDAC3 complex, full length with His C-terminal tag, MW=49.7 kDa; His (C); purchased BioMol SE-507; host or cells: baculovirus expression system
Method: (§1) Peptide substrates: all HDAC assays were performed using acetylated peptide substrates labeled with 7-amino-4-methylcoumarin (AMC): • Substrate for isoforms HDAC1, 2, 3, 6, 10, 11, and HeLa nuclear extract assays: acetylated fluorogenic peptide from p53 residues 379-382 (RHKKAc). • Substrate for isoforms HDAC4, 5, 7, 9: fluorogenic Boc-L-Lys (s-trifluoroacetyl)-AMC. • Substrate for HDAC8 assays: acetylated fluorogenic peptide from p53 residues 379-382 (RHKAcKAc).
(§2) 50 μl of peptide substrate (see “peptide substrates” section above) and an optimal concentration of the corresponding enzyme (see “enzymes” section above) in the assay buffer at a final DMSO concentration of 1% were incubated in the presence of gradient concentrations of inhibitors (10-dose IC50 mode with 3-fold serial dilution) at 30° C. for 2 hours. The reactions were carried out in a 96-well microplate for fluorometry in a 50 μl reaction volume. After the deacetylation reaction, Fluor-de-Lys-Developer (BioMol Cat. #KI-105) was added to each well to digest the deacetylated substrate, thereby producing the fluorescent signal. The reaction was carried out for 45 minutes at 30° C. with 5% CO2; the fluorescent signal was then measured using an excitation wavelength of 360 nm and an emission wavelength of 460 nm in a microplate-reading fluorometer (GeminiXS, Molecular Devices, Sunnyvale, CA). […]

[2] = target: T2, human HDAC11 (Homo sapiens, UniProt Q96DB2); test: HDAC11 enzymatic activity assay (fluorogenic peptide); assay type: biochemical; conditions: 10-dose, 3-fold serial dilution, triplicate
T2 construct: GST (N); purchased BioMol SE-560; host or cells: baculovirus expression system
T2 sequence (Q96DB2 1-347): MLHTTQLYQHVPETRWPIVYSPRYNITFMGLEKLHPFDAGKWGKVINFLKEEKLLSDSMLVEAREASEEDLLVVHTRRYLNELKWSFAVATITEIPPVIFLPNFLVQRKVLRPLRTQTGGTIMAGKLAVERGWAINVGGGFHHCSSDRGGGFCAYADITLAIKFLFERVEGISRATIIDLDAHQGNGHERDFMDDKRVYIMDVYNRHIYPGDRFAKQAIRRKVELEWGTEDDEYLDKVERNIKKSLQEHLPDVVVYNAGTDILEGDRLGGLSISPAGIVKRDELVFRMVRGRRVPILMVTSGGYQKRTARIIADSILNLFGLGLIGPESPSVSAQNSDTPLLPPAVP
Method: as §1, §2

[3] = tested on: HDAC enzymes; test: Enzymatic activity assays in 11 HDAC enzymes (statements on the panel); assay type: biochemical, human; conditions: HDAC enzymes other than HDAC6
Method: as §1
(§3) 50 μl of peptide substrate (see “peptide substrates” section above) and an optimal concentration of the corresponding enzyme (see “enzymes” section above) in the assay buffer at a final DMSO concentration of 1% were incubated in the presence of gradient concentrations of inhibitors (10-dose IC50 mode with 3-fold serial dilution) at 30° C. for 2 hours. The reactions were carried out in a 96-well microplate for fluorometry in a 50 μl reaction volume. After the deacetylation reaction, Fluor-de-Lys-Developer (BioMol Cat. #KI-105) was added to each well to digest the deacetylated substrate, thereby producing the fluorescent signal. The reaction was carried out for 45 minutes at 30° C. with 5% CO2; the fluorescent signal was then measured using an excitation wavelength of 360 nm and an emission wavelength of 460 nm in a microplate-reading fluorometer (GeminiXS, Molecular Devices, Sunnyvale, CA). A curve of deacetylated standard (Biomol, Cat. #KI-142; made from 100 μM with 1:2 dilution and 10 doses, 6 μl) allowed the conversion of the fluorescent signal into micromoles of deacetylated product. All experiments were performed in triplicate. The IC50s were calculated by fitting the experimental data to dose-response curve. DMSO was used as negative control; Trichostatin A (Biomol Cat. #GR-309) was used as positive control inhibitor.
(§4) Enzymatic activity assays were carried out in 11 HDAC enzymes, including HDAC6.

[4] = target: T3, human HDAC6 (Homo sapiens, UniProt Q9UBN7); test: HDAC6 enzymatic activity assay (fluorogenic peptide); assay type: biochemical; conditions: for IC50: 10-dose, 3-fold serial dilution, triplicate
T3 construct: GST (N); purchased BioMol SE-508; host or cells: baculovirus / Sf9 cells
T3 sequence (Q9UBN7 1-1215): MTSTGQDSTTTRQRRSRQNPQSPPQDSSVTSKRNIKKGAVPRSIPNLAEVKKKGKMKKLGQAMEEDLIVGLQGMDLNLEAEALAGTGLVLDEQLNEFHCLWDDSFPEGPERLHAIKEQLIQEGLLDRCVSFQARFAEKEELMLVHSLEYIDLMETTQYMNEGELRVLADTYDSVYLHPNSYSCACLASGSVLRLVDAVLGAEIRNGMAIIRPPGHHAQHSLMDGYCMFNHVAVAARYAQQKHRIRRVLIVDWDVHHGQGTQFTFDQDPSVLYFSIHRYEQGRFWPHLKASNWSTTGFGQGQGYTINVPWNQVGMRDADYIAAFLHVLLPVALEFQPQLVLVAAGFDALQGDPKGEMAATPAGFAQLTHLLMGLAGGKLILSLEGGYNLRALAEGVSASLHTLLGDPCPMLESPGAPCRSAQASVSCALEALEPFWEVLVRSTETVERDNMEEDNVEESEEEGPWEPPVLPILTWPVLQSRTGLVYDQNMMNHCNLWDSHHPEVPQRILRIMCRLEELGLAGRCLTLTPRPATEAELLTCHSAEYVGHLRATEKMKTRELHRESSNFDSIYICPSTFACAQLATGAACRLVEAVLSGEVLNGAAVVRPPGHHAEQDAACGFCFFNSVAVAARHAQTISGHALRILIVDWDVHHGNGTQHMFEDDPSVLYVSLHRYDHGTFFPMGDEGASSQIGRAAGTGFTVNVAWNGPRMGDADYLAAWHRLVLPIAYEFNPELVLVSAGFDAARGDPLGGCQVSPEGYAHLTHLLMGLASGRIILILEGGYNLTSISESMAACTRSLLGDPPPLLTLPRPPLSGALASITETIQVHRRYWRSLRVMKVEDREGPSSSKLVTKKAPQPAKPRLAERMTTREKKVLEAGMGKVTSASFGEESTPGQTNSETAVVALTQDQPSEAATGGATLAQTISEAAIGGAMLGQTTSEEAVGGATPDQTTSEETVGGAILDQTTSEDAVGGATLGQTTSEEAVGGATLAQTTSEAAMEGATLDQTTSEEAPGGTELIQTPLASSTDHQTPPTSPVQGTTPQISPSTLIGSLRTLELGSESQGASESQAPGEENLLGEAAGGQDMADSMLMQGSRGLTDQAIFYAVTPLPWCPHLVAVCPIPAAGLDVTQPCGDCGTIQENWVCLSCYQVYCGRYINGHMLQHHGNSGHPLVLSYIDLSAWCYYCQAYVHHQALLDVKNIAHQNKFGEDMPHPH
Method: as §1, §3, §4

[5] = target: human HDAC9 (Homo sapiens, UniProt Q9UKV0); test: HDAC9 enzymatic activity assay (fluorogenic peptide); assay type: biochemical; conditions: 10-dose, 3-fold serial dilution, triplicate
Sequence of human HDAC9 (Q9UKV0 604-1066 isoform Q9UKV0-5): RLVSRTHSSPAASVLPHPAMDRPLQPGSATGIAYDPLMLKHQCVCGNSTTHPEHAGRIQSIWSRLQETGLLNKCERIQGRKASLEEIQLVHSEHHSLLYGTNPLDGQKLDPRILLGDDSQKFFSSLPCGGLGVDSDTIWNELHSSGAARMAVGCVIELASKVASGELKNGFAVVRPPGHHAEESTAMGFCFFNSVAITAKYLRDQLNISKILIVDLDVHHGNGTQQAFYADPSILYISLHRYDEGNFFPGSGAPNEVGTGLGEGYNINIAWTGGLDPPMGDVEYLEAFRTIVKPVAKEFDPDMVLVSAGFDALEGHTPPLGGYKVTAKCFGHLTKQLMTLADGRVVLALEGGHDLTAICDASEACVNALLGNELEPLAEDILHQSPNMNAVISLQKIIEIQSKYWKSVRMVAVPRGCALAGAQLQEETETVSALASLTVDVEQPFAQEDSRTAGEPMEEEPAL
Method: as §1, §2

T1 sequence (O15379 whole entry): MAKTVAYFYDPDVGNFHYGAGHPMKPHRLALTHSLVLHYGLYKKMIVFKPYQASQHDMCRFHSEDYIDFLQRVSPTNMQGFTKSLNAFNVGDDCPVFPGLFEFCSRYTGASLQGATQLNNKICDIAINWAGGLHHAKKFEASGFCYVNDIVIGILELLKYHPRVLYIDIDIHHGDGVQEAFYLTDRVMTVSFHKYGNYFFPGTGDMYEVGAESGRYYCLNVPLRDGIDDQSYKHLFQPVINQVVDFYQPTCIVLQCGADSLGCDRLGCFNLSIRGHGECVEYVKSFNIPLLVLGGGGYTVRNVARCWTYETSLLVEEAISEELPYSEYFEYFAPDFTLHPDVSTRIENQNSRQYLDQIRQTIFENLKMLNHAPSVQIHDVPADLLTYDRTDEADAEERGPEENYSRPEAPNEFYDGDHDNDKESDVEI
T1 sequence (Q9Y618 395-489 partner limits assumed): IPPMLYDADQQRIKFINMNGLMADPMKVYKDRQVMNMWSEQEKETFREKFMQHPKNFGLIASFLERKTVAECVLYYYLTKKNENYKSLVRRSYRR

Compound	IC50 [1]	IC50 [2]	inhibitory capacity with respect to the rest of the HDAC enzymes [3]	selectivity and inhibitory capacity with respect to HDAC6 enzyme [4]	IC50 [4]	HDAC6 selectivity proportion ([4]; matches IC50 HDAC1 / IC50 HDAC6)	IC50 [5]
C[C@H](CCC(=O)NCc1ccc(C(=O)NO)cc1)[C@H]1CC[C@H]2[C@@H]3[C@@H](O)C[C@@H]4C[C@H](O)CC[C@]4(C)[C@H]3CC[C@]12C [Compound Ia]	8.37 µM	2.33 µM	micromolar range	nanomolar range	0.058 µM	174	13.4 µM
C[C@H](CCC(=O)NCC(=O)NCc1ccc(C(=O)NO)cc1)[C@H]1CC[C@H]2[C@@H]3[C@@H](O)C[C@@H]4C[C@H](O)CC[C@]4(C)[C@H]3CC[C@]12C [Ib, 4-((2-((R)-4 ((3R,5S,7S,8R,9S,10S,13R,14S,17R)-3,7-dihydroxy-10,13-dimethylhexadecahydro-1H-cyclopenta[a]phenanthren-17-yl)pentanamide)acetamido)methyl)-N-hydroxybenzamide]	9.99 µM	2.56 µM	micromolar range	nanomolar range	0.0561 µM	–	11.6 µM
